Test results: patent publication US7312219B2, “Heteroaromatic inhibitors of fructose 1,6-bisphosphatase” (Metabasis Therapeutics, Inc., priority 1998, dated 2007)

Columns and labels:
[1] = system: Zucker Diabetic Fatty rats; assay: Blood Glucose Lowering in Zucker Diabetic Fatty Rats, Intravenous; format: in vivo, rat; conditions: six hour time point
Description: 12-week old Zucker Diabetic Fatty rats (Genetics Models Inc., Indiannapolis, Ind.) maintained on Purina 5008 diet were instrumented with tail artery and tail vein catethers at 8 am on the day of the study. Food was removed for the remainder of the day. […] Blood samples were obtained from the tail artery catheter at the start of the infusions, and at hourly intervals thereafter. Glucose was measured in the samples by means of a HemoCue analyzer (HemoCue Inc., Mission Viejo, Calif.) according to the manufacturer's instructions.

[2] = system: Gluconeogenesis in Zucker Diabetic Fatty Rats; assay: Inhibition of Gluconeogenesis by FBPase Inhibitor in Zucker Diabetic Fatty Rats (14C-bicarbonate to 14C-glucose); format: in vivo, rat; conditions: after 6-hour infusion at 3 mg/kg/h, n=3/group
Description: Following a 6-hour infusion of 3.26 at 3 mg/kg/h or saline to Zucker Diabetic Fatty rats (n=3/group) as described in Example K, a bolus of ^14C-bicarbonate (40 μCi/100 g body weight) was administered via the tail vein catheter. 20 minutes later, a blood sample (0.6 mL) was taken via the tail artery. Blood (0.5 ml) was diluted into 6 mL deionized water and protein precipitated by addition of 1 mL zinc sulfate (0.3 N) and 1 mL barium hydroxide (0.3 N). The mixture was centrifuged (20 minutes, 1000×g) and 5 mL of the resulting supernatant was then combined with 1 g of a mixed bed ion exchange resin (1 part AG 50W-X8, 100–200 mesh, hydrogen form, and 2 parts AG 1-X8, 100–200 mesh, acetate form) to separate ^14-C-bicabonate from ^14C-glucose. The slurry was shaken at room temperature for four hours and then allowed to settle. An aliquot of the supernatant (0.5 mL) was then counted in 5 mL scintillation cocktail. The percentage inhibition of gluconeogenesis in drug-treated rats was calculated by dividing the average cpm of ^14C-glucose in samples from drug-treated animals by those from saline-injected animals.

Fasted Rat = assay: Glucose Lowering Following Oral Administration to the Fasted Rat; format: in vivo; conditions: oral gavage, 18-hour fasted rats, dose 30 mg/kg, time point 2 h, relative to saline controls
Description: Compounds were administered by oral gavage to 18-hour fasted, Sprague Dawley rats (250–300 g, n =3/4/group). Phosphonic acids were prepared in deionized water, and the solution adjusted to neutrality with solidum hydroxide. Prodrugs were dissolved in polyethylene glycol (mw 400). […] The table below indicates the maximum glucose lowering achieved relative to control animals dosed with saline.

[3] = system: Zucker Diabetic Fatty rats; assay: Blood Glucose Lowering in Zucker Diabetic Fatty Rats, Oral; format: in vivo, rat
Description: Zucker Diabetic Fatty rats were purchased from Genetics Models Inc. (Indiannapolis, Ind.) at 8 weeks of age and fed the recommended Purina 5008 diet. At the age of 12 weeks, 16 animals with fed blood glucose levels between 500 and 700 mg/dl were selected and divided into two groups (n=8) with statistically equivalent average blood glucose levels. […] The drug solution for this treatment was prepared at 25 mg/ml in deionized water and adjusted to neutrality by dropwise addition of 5 N NaOH. A second group of rats (n=8) was dosed orally with saline, in parallel. Blood glucose was measured in each rat just prior to drug or saline administration and 6 hours post administration. A HemoCue blood glucose analyzer (HemoCue Inc., Mission Viejo, Calif.) was used for these measurements according to the manufacturer's instructions.

Fasted Rats = assay: Blood Glucose Lowering Following Intravenous Administration to Fasted Rats; format: in vivo, rat; conditions: 18 h fasted Sprague Dawley rats, relative to saline-treated controls
Description: Inhibitors were disolved in water and the solution adjusted to neutrality with NaOH. Blood samples were obtained from the tail vein of conscious animals just prior to injection and after 1 hour. Blood glucose was measured using a HemoCue Inc. glucose analyzer according to the instructions of the manufacturer.

db/db Mouse = assay: Hepatic Glycogen Levels in the db/db Mouse; format: in vivo; conditions: db/db mice
Description: Db/db mice and their nondiabetic db/+ littermates were obtained at 8 weeks of age (Jackson Labs., Bar Harbor, Me.) and enrolled in the study at 11 weeks of age. […] Db/+ mice were treated with saline according to the same schedule. At 6 pm, mice were anesthetized with halothane and a small section of liver (0.5 g) was removed by the freeze-clamping technique. The liver samples were fully frozen by subsequent immersion in liquid nitrogen and then homogenized in 5 volumes of cold 0.6 N perchloric acid. Glycogen content was determined enzymatically in the homogenates by the method of Keppler and Decker (Keppler D and Decker K in Methods of Enzymatic Analysis, Bergmeyer, H U, Ed., Verlag Chemie International, Deerfield Beach, Fla., 1974).

[4] = Analysis of Drug Levels and Liver Accumulation in Rats; format: in vivo, rat; conditions: Sprague-Dawley, rat, iv; fasted rats, 10 mgs/kg i.v., one hour post injection, plasma; read-out: Plasma Conc.
Description: The compound was dissolved in water and the solution adjusted to neutrality with NaOH. One hour post injection rats were anesthetized with halothane and a liver biopsy (approx. 1 g) was taken as well as a blood sample (2 ml) from the posterior vena cava. A heparin flushed syringe and needle were used for blood collection. The liver sample was immediately homogenized in ice-cold 10% perchloric acid (3 ml), centrifuged, and the supernatant neutralized with ⅓rd volume of 3 M KOH/3 M KHCO3. […] Plasma was prepared from the blood sample by centrifugation and extracted by addition of methanol to 60% (v/v). The methanolic extract was clarified by centrifugation and filtration and then analyzed by HPLC as described above.

- concentration at 1 h [4]: 56 ± 2 µM
Structure (SMILES): CSc1sc(N)nc1-c1ccc(P(=O)(O)O)o1 [Compound 3.26, 2-Amino-5-methylthio-4-[2-(5-phosphono)furanyl]thiazole]
- decrease in blood glucose relative to saline-infused controls ([1]; 3 mg/kg/h tail vein infusion): 29%
- decrease in blood glucose relative to saline-infused controls ([1]; 30 mg/kg/h tail vein infusion): 39%
- 14C-Glucose production inhibited [2]: 75%
- % Glucose Lowering (maximum) (Fasted Rat): 70%
- lowering of blood glucose relative to saline treated controls ([3]; 100 mg/kg oral, 6 hours post administration, p=0.01): 15.4%
- Blood Glucose, 7 pm ([3]; 6 hours post 100 mg/kg oral gavage, n=8): 497 ± 14 mg/dL
- Blood Glucose, 1 pm ([3]; just prior to administration of 100 mg/kg by oral gavage, n=8): 573 ± 26 mg/dL
- blood glucose lowering (Fasted Rats; 3 mg/kg intravenous): 52%
- inhibition in vivo at 10 mg/kg (Fasted Rats; Rattus norvegicus, iv, 10 mg/kg i.v., 1 hour): 73%
- liver glycogen stores (db/db Mouse; 100 mg/kg oral at 8 am and 2 pm, liver taken 6 pm): reduction of glycogen stores to levels that approached those of nondiabetic db/+ mice
- Liver Glycogen (db/db Mouse; 100 mg/kg orally at 8 am and 2 pm, Evening, 6 pm): 34.4 ± 7.1 (n = 3) μmol glucose/g
